BindingDB's records for doi:10.7270/Q2Q81BH4 (Nmmlsc, 2009)

Molecular target: T1, Mitogen-activated protein kinase kinase kinase 3 (Homo sapiens, UniProt Q99759)
T1 sequence (Q99759 whole entry): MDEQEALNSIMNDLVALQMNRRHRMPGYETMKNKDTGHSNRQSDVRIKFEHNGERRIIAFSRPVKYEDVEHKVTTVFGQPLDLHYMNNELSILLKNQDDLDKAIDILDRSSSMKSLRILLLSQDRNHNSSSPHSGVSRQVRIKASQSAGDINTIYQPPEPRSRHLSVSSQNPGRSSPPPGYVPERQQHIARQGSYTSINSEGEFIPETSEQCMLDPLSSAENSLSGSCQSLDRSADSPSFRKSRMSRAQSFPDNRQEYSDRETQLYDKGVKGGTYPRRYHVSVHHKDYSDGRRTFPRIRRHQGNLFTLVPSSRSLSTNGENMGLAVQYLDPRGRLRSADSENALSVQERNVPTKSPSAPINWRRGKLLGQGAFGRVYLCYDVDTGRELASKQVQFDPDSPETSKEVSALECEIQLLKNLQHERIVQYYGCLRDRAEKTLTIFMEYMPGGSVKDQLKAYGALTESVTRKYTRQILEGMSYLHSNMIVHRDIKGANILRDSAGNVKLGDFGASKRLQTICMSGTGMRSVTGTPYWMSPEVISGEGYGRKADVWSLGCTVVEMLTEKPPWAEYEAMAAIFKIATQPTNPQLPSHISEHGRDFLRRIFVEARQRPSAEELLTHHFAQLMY
Assay: MEKK3–MEK5 PB1 domain interaction inhibitors – multiplex assay, wild-type MEKK3, SAR follow-up (AID 2145)
Conditions: not given

Row | Compound | EC50 [µM]
1 | c1ccc(-c2nnc3sc(-c4ccc[nH]4)nn23)nc1 | > 30
2 | c1ccc(-c2nnc3sc(C4CCCCCC4)nn23)nc1 | > 30
3 | COc1cc([N+](=O)[O-])ccc1-c1nn2c(-c3ccccn3)nnc2s1 | > 30
4 | COc1ccc(-c2nn3c(-c4ccccn4)nnc3s2)cc1OC [6-(3,4-dimethoxyphenyl)-3-(2-pyridinyl)-[1,2,4]triazolo[3,4-b][1,3,4]thiadiazole] | > 30
5 | c1coc(-c2nnc3sc(C4CCCCC4)nn23)c1 [6-cyclohexyl-3-(2-furanyl)-[1,2,4]triazolo[3,4-b][1,3,4]thiadiazole] | > 30

Second part, the compound after the results:

Row | EC50 [µM] | Compound
6 | > 30 | COc1cccc(-c2nn3c(-c4ccccn4)nnc3s2)c1
7 | > 30 | c1csc(Cc2nn3c(-c4ccncc4)nnc3s2)c1
8 | > 30 | COc1cc([N+](=O)[O-])ccc1-c1nn2c(-c3ccco3)nnc2s1 [3-(2-furanyl)-6-(2-methoxy-4-nitrophenyl)-[1,2,4]triazolo[3,4-b][1,3,4]thiadiazole]
9 | > 30 | CCOc1cccc(-c2nn3c(-c4ccco4)nnc3s2)c1 [6-(3-ethoxyphenyl)-3-(2-furanyl)-[1,2,4]triazolo[3,4-b][1,3,4]thiadiazole]
10 | > 30 | c1coc(-c2nnc3sc(C4CCCCCC4)nn23)c1 [6-cycloheptyl-3-(2-furanyl)-[1,2,4]triazolo[3,4-b][1,3,4]thiadiazole]
11 | > 30 | c1c[nH]c(-c2nn3c(-c4ccco4)nnc3s2)c1 [(6Z)-3-(2-furanyl)-6-(2-pyrrolylidene)-5H-[1,2,4]triazolo[3,4-b][1,3,4]thiadiazole]
12 | > 30 | c1ccc(-c2nnc3sc(C4CCCCC4)nn23)nc1 [VU0364704-1]

Same assay, conditions: inactive by the depositor's call

Row | EC50 [µM] | Compound
13 | 1.1 | CCOc1cccc(-c2nn3c(-c4cccs4)nnc3s2)c1 [6-(3-ethoxyphenyl)-3-thiophen-2-yl-[1,2,4]triazolo[3,4-b][1,3,4]thiadiazole]
